Data taken from PMC8528301 (PLoS ONE, 2021).

Tests used:
GCR = settings: read-out: GCR EC50; printed in Fig 9; ref J Biol Chem. 2002 Jan 11; PMID: 11682470; cited from earlier work
[1] = Dasatinib disposition in bile duct cannulated rats (literature); format: in vivo, rat

Compound | EC50 (GCR) | percentage absorbed ([1]; bile duct cannulated rats, inferred from unchanged drug) | share of absorbed drug that might undergo hepatic metabolism ([1]; rats) | share of total drug that might undergo hepatic metabolism ([1]; rats)
C[C@@H]1C[C@H]2[C@@H]3CCC4=CC(=O)C=C[C@]4(C)[C@@]3(F)[C@@H](O)C[C@]2(C)[C@@]1(O)C(=O)CO [DEX, dexamethasone] | 11 nM | – | – | –
Cc1nc(Nc2ncc(C(=O)Nc3c(C)cccc3Cl)s2)cc(N2CCN(CCO)CC2)n1 [dasatinib] | – | 67% | 60% | at least 40%
